Assay results as given in patent US8557816B2, “Aurora kinase modulators and method of use” (Amgen Inc., priority 2007, dated 2013).

What was measured:
AuroraB = target: T1, AuroraB (Homo sapiens, UniProt Q96GD4); experiment: AuroraB Homogeneous Time Resolved Fluorescent (HTRF) kinase assay; format: biochemical; conditions: average; read-out: AurB_IC50_IP (uM Avg)
T1 construct: 20 μL of AuroraB FL H is for a final volume of 41 μL; His
Outline: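 Full-length His-tagged kinase phosphorylates biotinylated Histone H3 (0.1 μM final) with ATP in pH 7.5 HEPES containing MgCl, MnCl, DTT and BSA for about 90 min. EDTA-containing detection mix with SA-APC and Eu-anti-phosphoHistone H3 then equilibrated about 60 min; HTRF read with 320 nm excitation, emissions 615/655 nm.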

AuroraA-TPX2 = target: T2, AuroraA-TPX2 (Homo sapiens, UniProt O14965); experiment: AuroraA-TPX2 Homogeneous Time Resolved Fluorescent (HTRF) kinase assay; format: biochemical; conditions: average; read-out: AurA_IC50_IP (uM Avg)
T2 construct: 20 μL of AuroraA-TPX2 KD GST for a final volume of about 41 μL; GST
T2 sequence (O14965 133-383 limits assumed): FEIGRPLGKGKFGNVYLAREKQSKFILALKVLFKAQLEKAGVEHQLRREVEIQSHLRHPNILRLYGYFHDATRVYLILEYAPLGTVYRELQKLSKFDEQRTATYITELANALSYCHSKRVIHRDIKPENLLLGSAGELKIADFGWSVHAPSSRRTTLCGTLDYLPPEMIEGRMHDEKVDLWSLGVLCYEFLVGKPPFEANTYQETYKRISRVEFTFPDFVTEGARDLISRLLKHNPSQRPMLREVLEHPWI
T2 sequence (Q9ULW0 1-43 partner limits assumed): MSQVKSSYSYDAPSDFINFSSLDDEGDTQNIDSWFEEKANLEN
Outline: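 HTRF read-out (Eu 615 nm to APC 655 nm) of phosphorylated biotin-PLK, detected with 0.02 nM europium anti-phosphoPLK antibody and 0.0005 mg/mL SA-APC after overnight equilibration.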

T1 sequence (Q96GD4 whole entry): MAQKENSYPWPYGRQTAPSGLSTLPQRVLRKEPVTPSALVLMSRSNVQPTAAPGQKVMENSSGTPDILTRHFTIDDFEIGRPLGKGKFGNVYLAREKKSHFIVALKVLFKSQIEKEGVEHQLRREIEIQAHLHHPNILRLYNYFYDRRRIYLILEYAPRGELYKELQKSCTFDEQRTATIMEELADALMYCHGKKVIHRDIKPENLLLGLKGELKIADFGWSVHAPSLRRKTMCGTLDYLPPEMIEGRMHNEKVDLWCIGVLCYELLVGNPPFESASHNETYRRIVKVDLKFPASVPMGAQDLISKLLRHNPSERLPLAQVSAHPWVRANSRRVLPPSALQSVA

Row | IC50 (AuroraB) [µM] | IC50 (AuroraA-TPX2) [µM] | Structure (SMILES)
1 | 0.042 | 0.023 | COc1cc2nccc(Oc3ccc(Nc4nnc(N5CCCCC5)c5ccccc45)cc3)c2cc1OC [compound 75, N-(4-((6,7-bis(methyloxy)-4-quinolinyl)oxy)phenyl)-4-(1-piperidinyl)-1-phthalazinamine]
2 | 0.002 | 0.029 | c1ccc(-c2nnc(Nc3ccc(Sc4ccnc5cccnc45)cc3)c3ccccc23)cc1 [compound 285, N-(4-(1,5-naphthyridin-4-ylthio)phenyl)-4-phenyl-1-phthalazinamine]
3 | 0.004 | 0.027 | COc1cnc2c(Oc3ccc(Nc4nnc(-c5ccc(F)c(OC)c5)c5ccccc45)cc3)ccnc2c1 [compound 180, 4-(4-fluoro-3-(methyloxy)phenyl)-N-(4-((7-(methyloxy)-1,5-naphthyridin-4-yl)oxy)phenyl)-1-phthalazinamine]
4 | 0.032 | 0.028 | COc1cnc2c(Sc3ccc(Nc4nnc(-c5ccc6cn[nH]c6c5)c5ccccc45)cc3)ccnc2c1 [compound 453]
5 | 0.045 | 0.189 | Fc1cc(F)c2c(Sc3ccc(Nc4nnc(-c5ccc(Cl)cc5)c5ccccc45)cc3)ccnc2c1 [compound 342, 4-(4-chlorophenyl)-N-(4-(5,7-difluoroquinolin-4-ylthio)phenyl)phthalazin-1-amine]
6 | 0.003 | 0.019 | COCc1cccc(-c2nnc(Nc3ccc(Oc4ccnc5cc(OC)cnc45)cc3)c3ccccc23)n1 [compound 120, 4-(6-((methyloxy)methyl)-2-pyridinyl)-N-(4-((7-(methyloxy)-1,5-naphthyridin-4-yl)oxy)phenyl)-1-phthalazinamine]
7 | 0.144 | 0.036 | COc1cnc2c(Sc3ccc(Nc4nnc(N5CCC(C(F)(F)F)CC5)c5ccccc45)cc3)ccnc2c1 [compound 523]
8 | 0.019 | 0.019 | COc1cnc2c(Oc3ccc(Nc4nnc(N5CC[C@H]6CCCC[C@H]6C5)c5ccccc45)cc3)ccnc2c1 [compound 173, N-(4-((7-(methyloxy)-1,5-naphthyridin-4-yl)oxy)phenyl)-4-((4aR,8aR)-octahydro-2(1H)-isoquinolinyl)-1-phthalazinamine]
9 | 0.018 | 0.67 | Fc1cc(F)c2c(Oc3ccc(Nc4nnc(-c5ccccc5)c5ccccc45)cc3)ccnc2c1 [compound 276, N-(4-(5,7-difluoroquinolin-4-yloxy)phenyl)-4-phenylphthalazin-1-amine]
10 | 0.021 | 0.428 | c1ccc(-c2nnc(Nc3ccc(Sc4ccnc5c4CCCN5)cc3)c3ccccc23)cc1 [compound 577]
11 | 0.15 | 0.21 | Cc1csc(-c2nnc(Nc3ccc(Sc4ccnc5cc(C#N)sc45)cc3)c3ccccc23)c1 [compound 459]
12 | 0.067 | 0.049 | COc1ccc2c(Sc3ccc(Nc4nnc(-c5ccc(Cl)cc5)c5ccccc45)cc3)ccnc2c1 [compound 334, 4-(4-chlorophenyl)-N-(4-(7-methoxyquinolin-4-ylthio)phenyl)phthalazin-1-amine]
13 | 0.013 | 0.018 | COc1cnc2c(Oc3ccc(Nc4nnc(-c5ccc(C)s5)c5ccccc45)cc3)ccnc2c1 [compound 138, N-(4-((7-(methyloxy)-1,5-naphthyridin-4-yl)oxy)phenyl)-4-(5-methyl-2-thienyl)-1-phthalazinamine]
14 | 0.015 | 0.036 | COc1cnc2c(Sc3ccc(Nc4nnc(-c5ccc(Cl)cc5)c5ccccc45)cc3)ccnc2c1 [compound 232, 4-(4-chlorophenyl)-N-(4-((7-(methyloxy)-1,5-naphthyridin-4-yl)thio)phenyl)-1-phthalazinamine]
15 | 0.003 | 0.039 | N#Cc1ccc2c(Oc3ccc(Nc4nnc(-c5ccccc5)c5ccccc45)cc3)ccnc2c1 [compound 105, 4-((4-((4-phenyl-1-phthalazinyl)amino)phenyl)oxy)-7-quinolinecarbonitrile]
16 | 0.007 | 0.055 | c1ccc2c(-c3ccc4c(c3)OCO4)nnc(Nc3ccc(Sc4ccnc5ccncc45)cc3)c2c1 [compound 427]
17 | 0.159 | 0.116 | COc1cnc2c(Sc3ccc(Nc4nnc(N5CC(C)CC(C)C5)c5ccccc45)cc3)ccnc2c1 (stereo not drawn) [compound 556]
18 | 0.365 | 0.752 | FC(F)(F)Oc1ccc2nccc(Oc3ccc(Nc4nnc(-c5ccc(Cl)cc5)c5ccccc45)cc3)c2c1 [compound 574]

Row | IC50 (AuroraB) [µM] | IC50 (AuroraA-TPX2) [µM] | Structure (SMILES)
19 | 0.073 | 0.036 | COc1ccc2c(Sc3ccc(Nc4nnc(-c5ccc(Cl)cn5)c5ccccc45)cc3)ccnc2c1 [compound 364, 4-(5-chloropyridin-2-yl)-N-(4-(7-methoxyquinolin-4-ylthio)phenyl)phthalazin-1-amine]
20 | 0.044 | 0.581 | COc1cnc2c(Oc3ccc(Nc4nnc(C5CC5)c5ccccc45)cc3)ccnc2c1 [compound 543]
21 | 0.016 | 0.037 | COc1cnc2c(Oc3ccc(Nc4nnc(-c5ccc6c(c5)CC(C)(C)O6)c5ccccc45)cc3)ccnc2c1 [compound 136, 4-(2,2-dimethyl-2,3-dihydro-1-benzofuran-5-yl)-N-(4-((7-(methyloxy)-1,5-naphthyridin-4-yl)oxy)phenyl)-1-phthalazinamine]
22 | 0.032 | 0.047 | COc1ccc2c(Cc3ccc(Nc4nnc(-c5ccc(Cl)cc5)c5ccccc45)cc3)ccnc2c1 [compound 328, 4-(4-chlorophenyl)-N-(4-((7-(methyloxy)-4-quinolinyl)methyl)phenyl)-1-phthalazinamine]
23 | 0.107 | > 125 | C[Si](C)(C)c1cc2nccc(Sc3ccc(Nc4nnc(Cl)c5ccccc45)cc3)c2o1 [compound 484]
24 | 0.005 | 0.036 | COc1cnc2c(Oc3ccc(Nc4nnc(-c5cccc(CO)n5)c5ccccc45)cc3)ccnc2c1 [compound 114, (6-(4-((4-((7-(methyloxy)-1,5-naphthyridin-4-yl)oxy)phenyl)amino)-1-phthalazinyl)-2-pyridinyl)methanol]
25 | 0.012 | 0.047 | COCCOc1cc(-c2nnc(Nc3ccc(Oc4ccnc5cc(OC)cnc45)cc3)c3ccccc23)ccc1C [Example 395, N-(4-(7-Methoxy-1,5-naphthyridin-4-yloxy)phenyl)-4-(3-(2-methoxyethoxy)-4-methylphenyl)phthalazin-1-amine]
26 | 0.015 | 0.167 | COc1cnc2c(Sc3ccc(Nc4nnc(OC)c5ccccc45)cc3)ccnc2c1 [Example 402, 4-Methoxy-N-(4-(7-methoxy-1,5-naphthyridin-4-ylthio)phenyl)phthalazin-1-amine]
27 | 0.013 | 0.027 | COc1cnc2c(Oc3ccc(Nc4nnc(N5CCN6CCCCC[C@@H]6C5)c5ccccc45)cc3)ccnc2c1 [compound 604]
28 | 0.013 | 0.142 | COc1ccc(F)cc1-c1nnc(Nc2ccc(Oc3ccnc4cc(C#N)ccc34)cc2)c2ccccc12 [compound 87, 4-((4-((4-(5-fluoro-2-(methyloxy)phenyl)-1-phthalazinyl)amino)phenyl)oxy)-7-quinolinecarbonitrile]
29 | 0.003 | 0.013 | CCOc1nc(-c2nnc(Nc3ccc(Oc4ccnc5cc(OC)cnc45)cc3)c3ccccc23)cs1 [compound 175, 4-(2-(ethyloxy)-1,3-thiazol-4-yl)-N-(4-((7-(methyloxy)-1,5-naphthyridin-4-yl)oxy)phenyl)-1-phthalazinamine]
30 | 0.018 | 0.601 | Clc1ccc(-c2nnc(Nc3ccc(Sc4ccnc5ccoc45)cc3)c3ccccc23)nc1 [Example 391, 4-(5-Chloropyridin-2-yl)-N-(4-(furo[3,2-b]pyridin-7-ylthio)phenyl)phthalazin-1-amine]
31 | 0.008 | 0.033 | COc1cnc2c(Oc3ccc(Nc4nnc(C#CC(C)(C)C)c5ccccc45)cc3)ccnc2c1 [Example 31, 4-(3,3-dimethylbut-1-ynyl)-N-(4-(7-methoxy-1,5-naphthyridin-4-yloxy)phenyl)phthalazin-1-amine]
32 | 0.006 | 0.013 | COc1cnc2c(Oc3ccc(Nc4nnc(-c5nc(C)cs5)c5ccccc45)cc3)ccnc2c1 [compound 82, N-(4-((7-(methyloxy)-1,5-naphthyridin-4-yl)oxy)phenyl)-4-(4-methyl-1,3-thiazol-2-yl)-1-phthalazinamine]
33 | 0.135 | 0.723 | COc1cnc2c(Oc3ccc(Nc4nnc(-c5ccccc5Cl)c5ccccc45)cc3)ccnc2c1 [compound 546]
34 | 0.007 | 0.041 | COc1cc2nccc(Oc3ccc(Nc4nnc(-c5cc(C)ccn5)c5ccccc45)cc3)c2cn1 [compound 121, N-(4-((7-(methyloxy)-1,6-naphthyridin-4-yl)oxy)phenyl)-4-(4-methyl-2-pyridinyl)-1-phthalazinamine]
35 | 0.043 | 0.093 | COc1cnc2c(Oc3ccc(Nc4nnc(-c5ccc(Cl)cc5)c5ccccc45)cc3OC)ccnc2c1 [compound 566]
36 | 0.02 | 0.123 | CCc1cc(-c2ccccc2OC)nnc1Nc1ccc(Sc2ccnc3cc(OC)cnc23)cc1 [compound 609]
